Consider 59 molecules from US12221453B2, “Substituted pyrazolo[5′,1′:2,3]pyrimido[5,4-b][1,4]oxazines as TYK2 inhibitors” (TAKEDA PHARMACEUTICAL COMPANY LIMITED, priority 2018, dated 2025).

One may read the IC50 as the point on the concentration scale where inhibition reaches its midpoint.

Bounds are passed on as bounds.

The test relates to IL-12 induced STAT4 phosphorylation mediated by TYK2/JAK2. In words: IL-12 induced pSTAT4 in human PBMC. In kind it is cell-based. The following applies: 1 hr compound, 1.7 ng/mL IL-12 for 30 minutes. How it is done:
Human PBMC were isolated from buffy coat and are stored frozen for assays as needed. […] 15 μL of compound or DMSO was added to the well at the desired concentrations and incubated at 1 hr at 37° C. 15 μL of stimulus (final concentration of 1.7 ng/mL IL-12) was added for 30 minutes prior to pSTAT4 and total STAT4 analysis using cell lysates prepared and analyzed by MSD reagents as per manufacturer protocol. The final DMSO concentration of compound in the assay was 0.1%. The IL-12 induced pSTAT4 assay evaluates the inhibition of IL-12 induced STAT4 phosphorlyation mediated by TYK2/JAK2 ([…] complex).

For `CNc1cc(Nc2cccn(-c3ccc(C)nc3)c2=O)nc2c(C(=O)NC3CCC3(F)F)cnn12` (centres unmarked) [Compound I-324], the IC50 is less than 0.1 µM.
As for `CNc1cc(Nc2cccn(-c3ccc(C)nc3)c2=O)nc2c(C(=O)N[C@H]3CCC3(F)F)cnn12` [Compound I-325], the figure is less than 0.1 µM; as for `CNc1cc(Nc2cccn([C@@H]3CCC[C@H](C#N)C3)c2=O)nc2c(C(=O)NC3CCC3(F)F)cnn12` (some centres unmarked) [Compound I-327], less than 0.1 µM; as for `CNc1cc(Nc2cccn([C@@H]3CCC[C@H](C#N)C3)c2=O)nc2c(C(=O)N[C@H]3CCC3(F)F)cnn12` [Compound I-328], less than 0.1 µM.
The result for `CNc1cc(Nc2cccn([C@H]3CCC[C@@H](C#N)C3)c2=O)nc2c(C(=O)NC3CCC3(F)F)cnn12` (some centres unmarked) [Compound I-330] reads less than 0.1 µM; that for `CNc1cc(Nc2cccn([C@H]3CCC[C@@H](C#N)C3)c2=O)nc2c(C(=O)N[C@H]3CCC3(F)F)cnn12` [Compound I-331], less than 0.1 µM; that for `CNc1cc(Nc2cccn([C@@H]3CCOC[C@@H]3OC)c2=O)nc2c(C(=O)NC3CCC3(F)F)cnn12` (some centres unmarked) [Compound I-336], less than 0.1 µM.
As for `CNc1cc(Nc2cccn([C@@H]3CCOC[C@@H]3OC)c2=O)nc2c(C(=O)N[C@@H]3CCC3(F)F)cnn12` [Compound I-338], the figure is less than 0.1 µM; as for `CNc1cc(Nc2cccn(C(C)C)c2=O)nc2c(C(=O)NC3CC[C@]3(C)O)cnn12` (some centres unmarked) [Compound I-339], less than 0.1 µM; as for `CNc1cc(Nc2cccn(C(C)C)c2=O)nc2c(C(=O)N[C@@H]3CC[C@@]3(C)O)cnn12` [Compound I-341], less than 0.1 µM.
Consider `CNc1cc(Nc2cccn(C3CCOCC3)c2=O)nc2c(C(=O)NC3CC[C@]3(C)O)cnn12` (some centres unmarked) [Compound I-348], for which the IC50 is less than 0.1 µM.
The result for `CNc1cc(Nc2cccn(C3CCOCC3)c2=O)nc2c(C(=O)N[C@H]3CC[C@]3(C)O)cnn12` [Compound I-349] reads less than 0.1 µM; that for `CNc1cc(Nc2cccn([C@H]3CC[C@@H]3O)c2=O)nc2c(C(=O)N[C@@H]3CC[C@@]3(C)OC)cnn12` [Compound I-377], less than 0.1 µM; that for `CNc1cc(Nc2cccn([C@H]3CCC[C@H]3O)c2=O)nc2c(C(=O)NC3CC[C@]3(C)OC)cnn12` (some centres unmarked) [Compound I-390], less than 0.1 µM.
The result for `CNc1cc(Nc2cccn([C@H]3CCC[C@H]3O)c2=O)nc2c(C(=O)N[C@H]3CC[C@]3(C)OC)cnn12` [Compound I-391] reads less than 0.1 µM; that for `CNc1cc(Nc2cccn(C3CCOCC3)c2=O)nc2c(C(=O)NC3CC[C@@]3(C)OC)cnn12` (some centres unmarked) [Compound I-405], less than 0.1 µM; that for `CNc1cc(Nc2cccn(C3CCOCC3)c2=O)nc2c(C(=O)N[C@H]3CC[C@]3(C)OC)cnn12` [Compound I-407], less than 0.1 µM.
The result for `CNc1cc(Nc2cccn([C@H]3[C@@H]4COC[C@@H]43)c2=O)nc2c(C(=O)N[C@@H]3CC[C@@]3(C)OC)cnn12` [Compound I-410] reads less than 0.1 µM.
Molecule `CNc1cc(Nc2cccn(-c3ncccc3F)c2=O)nc2c(C(=O)NC3CC[C@@]3(C)OC)cnn12` (some centres unmarked) [Compound I-414] displayed an IC50 of less than 0.1 µM.
As for `CNc1cc(Nc2cccn(-c3ncccc3F)c2=O)nc2c(C(=O)N[C@@H]3CC[C@@]3(C)OC)cnn12` [Compound I-415], the figure is less than 0.1 µM; as for `CNc1cc(Nc2cccn([C@H]3CCCC[C@H]3O)c2=O)nc2c(C(=O)NC3CC[C@]3(C)OC)cnn12` (some centres unmarked) [Compound I-423], less than 0.1 µM; as for `CNc1cc(Nc2cccn([C@H]3CCCC[C@H]3O)c2=O)nc2c(C(=O)N[C@H]3CC[C@]3(C)OC)cnn12` [Compound I-424], less than 0.1 µM.
As for `CNc1cc(Nc2cccn([C@H]3CC[C@H](OC)CC3)c2=O)nc2c(C(=O)N[C@@H]3CC[C@@]3(C)OC)cnn12` [Compound I-428], the figure is less than 0.1 µM; as for `CNc1cc(Nc2cccn([C@H]3CC[C@@H](OC)CC3)c2=O)nc2c(C(=O)N[C@@H]3CC[C@@]3(C)OC)cnn12` [Compound I-431], less than 0.1 µM; as for `CNc1cc(Nc2cccn([C@H]3C[C@H](F)C3)c2=O)nc2c(C(=O)N[C@H]3CC[C@H](O)C3)cnn12` [Compound I-436], less than 0.1 µM.
As for `CNc1ccc(-c2cc(NC)n3ncc(C(=O)N[C@@H]4C[C@@H]4F)c3n2)n2ccnc12` [Compound I-479], the figure is less than 0.1 µM; as for `CNc1ccc(-c2cc(NC)n3ncc(C(=O)N[C@H]4CC[C@@H]4F)c3n2)n2ccnc12` [Compound I-481], less than 0.1 µM.
The molecule `CNc1ccc(-c2cc(NC)n3ncc(C(=O)NC4CC[C@H]4F)c3n2)n2ccnc12` (some centres unmarked) [Compound I-483] came in with an IC50 of less than 0.1 µM.
As for `CNc1ccc(-c2cc(NC)n3ncc(C(=O)NC4CC[C@H]4O)c3n2)n2ccnc12` (some centres unmarked) [Compound I-484], the figure is less than 0.1 µM; as for `CNc1ccc(-c2cc(NC)n3ncc(C(=O)N[C@H]4CC[C@H]4O)c3n2)n2ccnc12` [Compound I-485], less than 0.1 µM; as for `CNc1ccc(-c2cc(NC)n3ncc(C(=O)NC4CC[C@@H]4OC)c3n2)n2ccnc12` (some centres unmarked) [Compound I-488], less than 0.1 µM.
As for `CNc1ccc(-c2cc(NC)n3ncc(C(=O)N[C@@H]4CC[C@H]4OC)c3n2)n2ccnc12` [Compound I-490], the figure is less than 0.1 µM.
Molecule `CNc1cc(-c2cn([C@H]3C[C@@H](O)C3)c3ncccc23)nc2c(C(=O)NC3CC3)cnn12` [Compound I-495] came in with an IC50 of less than 0.1 µM.
As for `CNc1cc(-c2cn(C3COC3)c3ncccc23)nc2c(C(=O)NC3CC[C@@H]3F)cnn12` (some centres unmarked) [Compound I-507], the figure is less than 0.1 µM; as for `CNc1cc(-c2cn(C3COC3)c3ncccc23)nc2c(C(=O)N[C@H]3CC[C@@H]3F)cnn12` [Compound I-508], less than 0.1 µM; as for `CNc1cc(-c2cn([C@H]3C[C@@H](O)C3)c3ncccc23)nc2c(C(=O)NC3CC[C@@H]3F)cnn12` (some centres unmarked) [Compound I-510], less than 0.1 µM.
The result for `CNc1cc(-c2cn([C@H]3C[C@@H](O)C3)c3ncccc23)nc2c(C(=O)N[C@H]3CC[C@@H]3F)cnn12` [Compound I-511] reads less than 0.1 µM; that for `CNc1cc(-c2cn(C3CN(C)C3)c3ncccc23)nc2c(C(=O)NC3CC[C@@H]3F)cnn12` (some centres unmarked) [Compound I-513], less than 0.1 µM.
The result for `CNc1cc(-c2cn(C3CN(C)C3)c3ncccc23)nc2c(C(=O)N[C@H]3CC[C@@H]3F)cnn12` [Compound I-514] reads less than 0.1 µM.
For `CNc1cc(-c2cn([C@H]3COC[C@@H]3OC)c3ncccc23)nc2c(C(=O)N[C@H]3CC[C@@H]3F)cnn12` [Compound I-523], the IC50 was less than 0.1 µM.
As for `CNc1cc(-c2cn([C@H]3COC[C@@H]3OC)c3ncccc23)nc2c(C(=O)NC3CC[C@H]3F)cnn12` (some centres unmarked) [Compound I-528], the figure is less than 0.1 µM; as for `CNc1cc(-c2cn([C@H]3COC[C@@H]3OC)c3ncccc23)nc2c(C(=O)N[C@H]3CC[C@H]3F)cnn12` [Compound I-529], less than 0.1 µM.
In turn, `CNc1cc(-c2cn([C@H]3COC[C@@H]3OC)c3ncccc23)nc2c(C(=O)N[C@@H]3CC[C@@H]3F)cnn12` [Compound I-530] showed an IC50 of less than 0.1 µM.
The molecule `CNc1cc(-c2cn([C@@H]3COC[C@H]3OC)c3ncccc23)nc2c(C(=O)NC3CC[C@H]3F)cnn12` (some centres unmarked) [Compound I-531] displayed an IC50 of less than 0.1 µM.
As for `CNc1cc(-c2cn([C@@H]3CCOC[C@H]3O)c3ncccc23)nc2c(C(=O)N[C@H]3CC[C@@H]3F)cnn12` [Compound I-538], the figure is less than 0.1 µM.
The result for `CNc1cc(-c2cn([C@H]3CCOC[C@H]3OC)c3ncccc23)nc2c(C(=O)NC3CC[C@@H]3F)cnn12` (some centres unmarked) [Compound I-546] reads less than 0.1 µM; that for `CNc1cc(-c2cn([C@@H]3CC3(F)F)c3ncccc23)nc2c(C(=O)NC3CC[C@H]3O)cnn12` (some centres unmarked) [Compound I-548], less than 0.1 µM; that for `CNc1cc(-c2cn([C@@H]3CC3(F)F)c3ncccc23)nc2c(C(=O)N[C@H]3CC[C@H]3O)cnn12` [Compound I-549], less than 0.1 µM.
As for `CNc1cc(-c2cn([C@H]3CC3(F)F)c3ncccc23)nc2c(C(=O)N[C@H]3CC[C@H]3O)cnn12` [Compound I-552], the half-maximal inhibitory concentration (IC50) was less than 0.1 µM.
As for `CNc1cc(-c2cn(C3COC3)c3ncccc23)nc2c(C(=O)N[C@H]3CC[C@H]3O)cnn12` [Compound I-555], the figure is less than 0.1 µM; as for `CNc1cc(-c2cn(C3COC3)c3ncccc23)nc2c(C(=O)N[C@H]3CC[C@@H]3O)cnn12` [Compound I-558], less than 0.1 µM.
On to `CNc1cc(-c2cn([C@@H]3COC[C@@H]3F)c3ncccc23)nc2c(C(=O)N[C@H]3CC[C@H]3O)cnn12` [Compound I-571], for which the IC50 is less than 0.1 µM.
The result for `CNc1cc(-c2cn([C@H]3COC[C@H]3F)c3ncccc23)nc2c(C(=O)NC3CC[C@H]3O)cnn12` (some centres unmarked) [Compound I-573] reads less than 0.1 µM; that for `CNc1cc(-c2cn([C@H]3COC[C@H]3F)c3ncccc23)nc2c(C(=O)N[C@H]3CC[C@H]3O)cnn12` [Compound I-574], less than 0.1 µM; that for `CNc1cc(-c2cn([C@H]3C[C@@H](O)C3)c3ncccc23)nc2c(C(=O)N[C@H]3CC[C@@H]3OC)cnn12` [Compound I-606], less than 0.1 µM.
As for `CNc1cc(-c2cn(C3CN(C)C3)c3ncccc23)nc2c(C(=O)NC3CC[C@@H]3OC)cnn12` (some centres unmarked) [Compound I-608], the figure is less than 0.1 µM.
As for `CNc1cc(-c2cn([C@@H]3CCOC3)c3ncccc23)nc2c(C(=O)NC3CC[C@@H]3OC)cnn12` (some centres unmarked) [Compound I-609], the figure is less than 0.1 µM; as for `CNc1cc(-c2cn([C@@H]3CCOC3)c3ncccc23)nc2c(C(=O)N[C@H]3CC[C@@H]3OC)cnn12` [Compound I-610], less than 0.1 µM; as for `CNc1cc(-c2cn([C@H]3CCOC3)c3ncccc23)nc2c(C(=O)NC3CC[C@@H]3OC)cnn12` (some centres unmarked) [Compound I-612], less than 0.1 µM.
